Measured values as given in article PMC4545913, “Dual EZH2 and EHMT2 histone methyltransferase inhibition increases biological efficacy in breast cancer cells” (Clinical Epigenetics, 2015).
pIC50: −log10 of the molar value.

Experiments:
MDA-MB-231 cells [1] = experiment: Clonogenic growth assay; format: cell-based; conditions: Homo sapiens; MDA-MB-231, 48 h treatment then 12 days in fresh media
Protocol: (§1) For clonogenic assays, cells were treated with compound for 48 h, media were removed and replaced with fresh media for a further 12 days to measure colony formation. For cell viability assays, lymphoma cells were plated at 20,000 cells in 200 μl per well in U-bottom 96 well plates in RPMI medium +20 % FCS. Cells were re-suspended 48 h later, diluted 10-fold in PBS + propidium iodide (PI) and the concentration of PI negative cells was counted using an Attune flow cytometer with autosampler. Breast cancer cells were seeded at a density of 10,000 cells/well in a sterile 96 clear-well plate with 150 μl of DMEM (+10 % FCS and 2 mM L-Glutamine). Each compound treatment was performed in triplicate for 72 h at concentrations of 100 nM and 1, 5, 10 and 50 μM in 100 μl of full-medium. After 72 h, 20 μl of MTT solution (3 mg of MTT Formazan, Sigma/1 ml PBS) was added to the medium and incubated for 4 h at 37 °C in a CO2 incubator. The MTT-product was solubilised with 100 μl DMSO, and for 1 h, incubated in the dark at room temperature. The optical density was read at 570 nm with PHERAstar.

MDA-MB-231 cells [2] = experiment: MTT cell viability assay; format: cell-based; conditions: Homo sapiens
Protocol: Fig. 1 MTT and mRNA levels in MDA-MB-231 cells after pharmacological inhibition and siRNA knockdown of EZH2 and EHMT2(G9a), individually and in combination. a Expression levels of KRT17, FBX032, JMJD3, EZH2, SPINK1 and EHMT2 were measured by qRT-PCR in the MDA-MB-231 cell line 48 h after transfection with siRNAs targeting EZH2 and EHMT2, both individually and in combination. All measurements were normalised to the fold-change (relative to GAPDH) in the mock transfection control. Error bars represent the mean ± SD of experiment performed in technical triplicate. b Expression levels of KRT17, FBX032, JMJD3 and SPINK1 were measured by qRT-PCR in the MDA-MB-231 cell line treated for 48 h with GSK343, UNC0638, and UNC0638 (at 7.5 μM) with increasing doses of GSK343. Each group has been compared to the untreated sample following normalisation to GAPDH. Error bars represent the mean ± SD of experiment performed in technical triplicate. c MTT assay for cell viability of MDA-MB-231 cells after treatment. MDA-MB-231 cells were seeded in 96 well plates. After 24 h, increasing doses of GSK343, UNC0638 or combination treatments (1, 2.5, 5, 7.5, 10 and 15 μM) were added to cells. Control was media with 0.5 % DMSO. Cell viability was measured by MTT assay after a 48-h treatment and a 24-h proliferation period. Error bars represent the mean ± SEM of five independent repeats
as §1

breast cancer cell lines = experiment: MTT anti-proliferative effect on a small panel of breast cancer cell lines; format: cell-based; conditions: read-out: Anti-proliferative IC50 values, range over panel
Protocol: The anti-proliferative effect of HKMTI-1-005 on a small panel of breast cancer cell lines was determined, with IC50 values in the range 2–10 μM (Table 3). […] The breast cancer cell line BT-474, which is the cell line most sensitive to HKMTI-1-005 treatment, has the highest relative expression of EZH2, as detected by Western analysis (data not shown).
as §1, with “The MTT-product was solubilised with 100 μl DMSO, and for 1 h, incubated in the dark at room temperature.” left out

H3K27me3 and H3K9me3 = experiment: Western analysis of global histone marks in MDA-MB-231 cells; format: cell-based; conditions: range of doses
Protocol: MDA-MB-231 cells seeded in 6 well plates at a cell density of 3 x 10^5 were treated with HKMTI-1-005 (1–7.5uM) for 48 h. Following lysis in Triton Extraction Buffer (TEB, PBS containing 0.5 % Triton ×100 (v/v), 1/1000 protease inhibitor), nuclei were re-suspended in 0.2 N HCL at a density of 4 x 10^7 nuclei per millilitre and incubated overnight at 4 °C to acid-extract the histones, before being centrifuged at 6500g for 10 min at 4 °C. Protein concentration was determined using the Bradford assay. H3K27me3, H3K9me3, H3K9me2, H3K9me and total H3 protein expression levels in the histone extract samples were determined using Western blot analysis using H3K27me3 (1:1000; Abcam), H3K9me3 (1:1000; Abcam), H3K9me (1:1000) and H3 (1:2000; Abcam) antibodies. After washing, the membrane was incubated with a horseradish peroxidase-labelled secondary antibody (1 h, room temperature). The membrane was incubated for 1 min with 5 mL of Pierce ECL Western blotting substrate (Thermo Scientific). Images were captured using Konica Minolta SRX101A Tabletop X-Ray film processor.

[3] = biological target: trimeric PRC2 complex (EZH2:EED:SUZ12) (Homo sapiens, UniProt Q15910); experiment: PRC2 enzymatic assay (SPA-type), biotinylated-H3 (21–44) peptide substrate; format: biochemical; conditions: mechanism of inhibition studies (Figure S4)
Description: (§2) A trimeric PRC2 complex (EZH2:EED:SUZ12) was employed in this assay, along with a biotinylated-H3 (21–44) peptide substrate. […] Since the peptide substrates used in these assays are poor models for the complex and dynamic structure of the chromatin substrate in cells and since the only minimal number of PRC2 proteins (EZH2:EED:SUZ12) required for enzymatically active EZH2 were employed in the PRC2 assay, care should be taken in the over interpretation of this in vitro inhibitory data.

[4] = biological target: trimeric PRC2 complex (EZH2:EED:SUZ12) (Homo sapiens, UniProt O75530+Q15022+Q15910); experiment: as above; format: biochemical; conditions: EZH2:EED:SUZ12, biotinylated-H3 (21–44) peptide substrate
Description: as §2

MCF-7 = experiment: MTT cell viability assay; format: cell-based; conditions: Homo sapiens, MCF7, read-out: Cell growth IC50 MCF-7
Protocol: as §1

SkBr3 = experiment: MTT cell viability assay; format: cell-based; conditions: Homo sapiens, SK-BR-3, read-out: Cell growth IC50 SkBr3
Protocol: as §1

BT-474 = experiment: MTT cell viability assay; format: cell-based; conditions: Homo sapiens, read-out: Cell growth IC50 BT-474
Protocol: as §1

T-47D = experiment: MTT cell viability assay; format: cell-based; conditions: Homo sapiens, T47D, read-out: Cell growth IC50 T-47D
Protocol: as §1

trimeric PRC2 complex (EZH2:EED:SUZ12) (Homo sapiens, UniProt Q15910), sequence (Q15910 whole entry): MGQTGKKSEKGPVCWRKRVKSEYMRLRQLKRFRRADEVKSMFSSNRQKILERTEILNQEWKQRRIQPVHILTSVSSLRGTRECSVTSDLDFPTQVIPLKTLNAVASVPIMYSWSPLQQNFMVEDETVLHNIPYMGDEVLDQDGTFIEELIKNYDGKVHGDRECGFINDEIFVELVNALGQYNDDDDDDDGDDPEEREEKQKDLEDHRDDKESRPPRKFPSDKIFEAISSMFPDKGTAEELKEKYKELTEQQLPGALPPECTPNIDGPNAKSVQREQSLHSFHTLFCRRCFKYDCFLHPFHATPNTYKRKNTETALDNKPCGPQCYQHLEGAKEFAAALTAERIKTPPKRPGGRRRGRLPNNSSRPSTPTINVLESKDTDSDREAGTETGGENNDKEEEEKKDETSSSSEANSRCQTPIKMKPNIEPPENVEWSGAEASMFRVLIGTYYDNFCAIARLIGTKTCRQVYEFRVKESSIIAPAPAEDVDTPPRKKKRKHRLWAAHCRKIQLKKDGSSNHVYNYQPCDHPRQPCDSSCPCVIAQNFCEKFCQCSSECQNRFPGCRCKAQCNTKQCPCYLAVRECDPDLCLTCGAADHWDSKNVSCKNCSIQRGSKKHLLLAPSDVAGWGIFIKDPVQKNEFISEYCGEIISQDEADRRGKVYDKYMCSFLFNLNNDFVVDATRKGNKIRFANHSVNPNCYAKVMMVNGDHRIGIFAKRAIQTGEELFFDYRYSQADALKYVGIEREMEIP
trimeric PRC2 complex (EZH2:EED:SUZ12) (Homo sapiens, UniProt Q15910), sequence (O75530 whole entry partner): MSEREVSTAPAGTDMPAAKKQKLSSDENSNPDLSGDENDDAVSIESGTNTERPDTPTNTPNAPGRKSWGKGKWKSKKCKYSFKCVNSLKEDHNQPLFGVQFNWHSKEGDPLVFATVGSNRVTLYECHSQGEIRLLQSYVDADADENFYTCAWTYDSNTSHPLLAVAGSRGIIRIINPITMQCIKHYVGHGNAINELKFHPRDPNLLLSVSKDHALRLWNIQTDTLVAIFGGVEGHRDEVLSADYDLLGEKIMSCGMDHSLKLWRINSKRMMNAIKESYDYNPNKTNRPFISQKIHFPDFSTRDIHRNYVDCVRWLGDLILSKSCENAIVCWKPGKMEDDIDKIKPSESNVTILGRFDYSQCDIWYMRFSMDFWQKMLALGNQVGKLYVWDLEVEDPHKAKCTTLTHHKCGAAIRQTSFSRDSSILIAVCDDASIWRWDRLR
trimeric PRC2 complex (EZH2:EED:SUZ12) (Homo sapiens, UniProt Q15910), sequence (Q15022 whole entry partner): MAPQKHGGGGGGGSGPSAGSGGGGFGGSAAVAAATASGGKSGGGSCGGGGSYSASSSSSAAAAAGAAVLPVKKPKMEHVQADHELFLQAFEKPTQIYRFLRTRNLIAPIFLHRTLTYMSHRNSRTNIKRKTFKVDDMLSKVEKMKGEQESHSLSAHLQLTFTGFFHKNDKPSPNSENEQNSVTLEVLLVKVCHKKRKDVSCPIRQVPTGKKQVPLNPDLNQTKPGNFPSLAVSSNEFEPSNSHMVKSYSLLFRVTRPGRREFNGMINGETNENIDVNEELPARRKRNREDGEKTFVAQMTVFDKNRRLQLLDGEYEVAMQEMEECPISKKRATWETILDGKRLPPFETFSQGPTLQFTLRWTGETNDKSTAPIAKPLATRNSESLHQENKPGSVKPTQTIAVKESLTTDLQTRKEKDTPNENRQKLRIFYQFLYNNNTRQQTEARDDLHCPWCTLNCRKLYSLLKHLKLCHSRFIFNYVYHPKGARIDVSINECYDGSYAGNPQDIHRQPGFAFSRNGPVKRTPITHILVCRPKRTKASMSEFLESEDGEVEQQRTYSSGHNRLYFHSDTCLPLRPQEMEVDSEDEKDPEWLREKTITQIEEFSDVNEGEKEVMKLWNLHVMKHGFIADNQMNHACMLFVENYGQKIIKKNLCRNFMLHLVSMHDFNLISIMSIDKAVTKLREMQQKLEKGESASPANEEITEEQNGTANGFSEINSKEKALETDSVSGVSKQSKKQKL
trimeric PRC2 complex (EZH2:EED:SUZ12) (Homo sapiens, UniProt O75530+Q15022+Q15910), sequence (Q15910 whole entry): as the sequence (Q15910 whole entry) above
trimeric PRC2 complex (EZH2:EED:SUZ12) (Homo sapiens, UniProt O75530+Q15022+Q15910), sequence (O75530 whole entry partner): as the sequence (O75530 whole entry partner) above
trimeric PRC2 complex (EZH2:EED:SUZ12) (Homo sapiens, UniProt O75530+Q15022+Q15910), sequence (Q15022 whole entry partner): as the sequence (Q15022 whole entry partner) above

SMILES: COc1cc2nc(N3CCN(C)CC3)nc(NC3CCN(Cc4ccccc4)CC3)c2cc1OC [HKMTI-1-005]
- pIC50 (MDA-MB-231 cells [1]): 6.39
- pIC50 (MDA-MB-231 cells [2]; MDA-MB-231, MTT (Table 3B), read-out: Cell growth IC50 MDA-MB-231): 5.37
- pIC50 (MDA-MB-231 cells [2]; MDA-MB-231 (Table 2), read-out: Cell viability (MTT) IC50): 5.37
- pIC50 (breast cancer cell lines): 5.00 to 5.70
- Global levels of H3K27me3 and H3K9me3 (Western) (H3K27me3 and H3K9me3): reduced
- Mechanism of PRC2 inhibition [3]: peptide substrate competitive
- pIC50 [4]: 4.62
- pIC50 (MCF-7): 5.11
- pIC50 (SkBr3): 5.11
- pIC50 (BT-474): 5.68
- pIC50 (T-47D): 5.07
